Measurements published in patent US20260092061A1, “COMPOUNDS FOR TARGETED PROTEIN DEGRADATION” (Amphista Therapeutics Limited, priority 2022, published 2026).

Legend:
Type in all cases: cell-based
BRD7 = target: T1, BRD7 (Homo sapiens, UniProt Q9NPI1); test: BRD7 degradation, HiBiT-BRD7 KI HEK293 (LgBiT) cells, NanoGlo Lytic Endpoint assay (Assay Protocol 1); conditions: HEK293; Table 3; assay 1; 1 μM compound at 5 h of treatment
T1 construct: HiBiT-BRD7 KI HEK293 (LgBiT) Cells (Promega CS3023410); host or cells: HEK293 (LgBiT), HiBiT knock-in at the BRD7 locus
T1 sequence (Q9NPI1 1-651): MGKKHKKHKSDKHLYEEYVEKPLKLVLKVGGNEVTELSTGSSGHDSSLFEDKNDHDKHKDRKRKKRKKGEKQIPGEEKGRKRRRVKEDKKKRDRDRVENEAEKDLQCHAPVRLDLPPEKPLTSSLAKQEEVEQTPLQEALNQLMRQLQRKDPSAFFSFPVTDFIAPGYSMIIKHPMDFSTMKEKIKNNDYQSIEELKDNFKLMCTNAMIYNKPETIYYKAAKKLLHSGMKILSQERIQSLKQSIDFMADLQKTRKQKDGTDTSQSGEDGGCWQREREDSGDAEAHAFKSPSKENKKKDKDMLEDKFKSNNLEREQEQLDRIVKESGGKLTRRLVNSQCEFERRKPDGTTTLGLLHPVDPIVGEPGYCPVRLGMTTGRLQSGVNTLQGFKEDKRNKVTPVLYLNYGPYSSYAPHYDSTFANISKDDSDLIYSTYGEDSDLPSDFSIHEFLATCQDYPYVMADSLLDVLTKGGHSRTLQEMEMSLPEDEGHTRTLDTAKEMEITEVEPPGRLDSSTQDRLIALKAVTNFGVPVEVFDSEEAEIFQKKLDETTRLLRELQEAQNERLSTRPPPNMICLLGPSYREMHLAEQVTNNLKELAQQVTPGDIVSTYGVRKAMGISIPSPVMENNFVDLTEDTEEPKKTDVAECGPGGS
Description: HiBiT-BRD9 KI HEK293 (LgBiT) Cells (Promega CS3023412) were seeded at 8000 cells per well (38 μL) in sterile white bottom 384 well plates (Invitrogen 164610 or Greiner 781080) and incubated overnight at 37° C. with 5% CO2. The next day, compounds were prepared at 1000× final concentration in DMSO and diluted 1:100 in media (DMEM PAN Biotech P04-03550+10% FBS ATCC 302025). […] The lytic buffer was equilibrated to room temperature for 10-15 min before lytic reagent was prepared by adding substrate (1:50) and LgBit protein (1:100) in lytic buffer. 40 μL lytic reagent mix was added to each well of the cel plate and plates were centrifuged briefly at ˜50g. Plates were incubated with shaking (350 RPM) for 12-24 min before reading using the LUM plus module of a BMG Pherastar FSX. Data was analysed using Dotmatics software and % BRD9 remaining was calculated by normalisation to average data from high and low control wells (DMSO treated cels and no cells respectively).
BRD7 degradation was determined in line with the procedure as outlined above for BRD9, with the exception that HiBiT-BRD7 KI HEK293 (LgBiT) Cells (Promega CS3023410) were seeded at 8000 cells per well (CPW) (36 uL) in sterile white bottom 384 well plates (Invitrogen 164610 or Greiner 781080) and incubated overnight at 37° C. with 5% CO2.

BRD9 = target: T2, BRD9 (Homo sapiens, UniProt Q9H8M2); test: BRD9 degradation, HiBiT-BRD9 KI HEK293 (LgBiT) cells, NanoGlo Lytic Endpoint assay (Assay Protocol 1); conditions: Table 3; assay 1; 5 h of treatment
T2 sequence (Q9H8M2 1-597): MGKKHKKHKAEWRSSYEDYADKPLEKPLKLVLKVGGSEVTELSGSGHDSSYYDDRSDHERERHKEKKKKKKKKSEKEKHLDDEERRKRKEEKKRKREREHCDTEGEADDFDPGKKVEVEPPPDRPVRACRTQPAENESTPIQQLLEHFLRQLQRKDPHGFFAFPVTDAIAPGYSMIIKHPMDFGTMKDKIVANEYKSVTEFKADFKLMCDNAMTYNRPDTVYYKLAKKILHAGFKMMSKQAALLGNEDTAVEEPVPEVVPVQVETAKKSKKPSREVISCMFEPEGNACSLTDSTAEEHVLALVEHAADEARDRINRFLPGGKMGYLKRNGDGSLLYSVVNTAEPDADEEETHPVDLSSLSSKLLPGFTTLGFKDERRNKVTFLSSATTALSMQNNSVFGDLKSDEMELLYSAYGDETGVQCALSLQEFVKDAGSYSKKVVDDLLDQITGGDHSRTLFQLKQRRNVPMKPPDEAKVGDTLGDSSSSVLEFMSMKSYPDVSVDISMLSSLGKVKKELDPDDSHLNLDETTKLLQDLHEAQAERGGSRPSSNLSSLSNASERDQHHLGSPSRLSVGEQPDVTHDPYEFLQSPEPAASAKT

BRD4 = target: T3, BRD4 (Homo sapiens, UniProt O60885); test: BRD4 degradation, HiBiT-BRD4 HEK293 CRISPR CPM cells, NanoGlo Lytic Endpoint assay (Assay Protocol 1); conditions: HEK293; Table 3; assay 1; 1 μM compound at 5 h of treatment
T3 construct: HiBiT-BRD4 HEK293 CRISPR CPM (Promega CS302312); host or cells: HEK293, CRISPR-edited (HiBiT at the BRD4 locus)

| SMILES | Dmax at 1 µM (BRD7) | DC50 (BRD9) | Dmax (BRD4) |
| --- | --- | --- | --- |
| COc1cc(-c2cn(C)c(=O)c(C)c2C)cc(OC)c1CN1CCCN(Cc2cccc3c2CCN(C(=O)/C(C#N)=C/C(C)(C)C)C3C)CC1 (mixture of isomers) [Compound A72, (E/Z)-2-(5-((4-(2,6-dimethoxy-4-(1,4,5-trimethyl-6-oxo-1,6-dihydropyridin-3-yl)benzyl)-1,4-diazepan-1-yl)methyl)-1-methyl-1,2,3,4-tetrahydroisoquinoline-2-carbonyl)-4,4-dimethylpent-2-enenitrile] | < 25% | 10 to 25 nM | < 25% |
| COc1cc(-c2cn(C)c(=O)c(C)c2C)cc(OC)c1CN1CCC(Oc2cccc3c2CCN(C(=O)/C(C#N)=C/c2cccc(Br)n2)C3C)CC1 (mixture of isomers) [Compound A68, (E/Z)-3-(6-bromopyridin-2-yl)-2-(5-((1-(2,6-dimethoxy-4-(1,4,5-trimethyl-6-oxo-1,6-dihydropyridin-3-yl)benzyl)piperidin-4-yl)oxy)-1-methyl-1,2,3,4-tetrahydroisoquinoline-2-carbonyl)acrylonitrile] | < 25% | 1.25 to 10 nM | < 25% |
| COc1cc(-c2cn(C)c(=O)c(C)c2C)cc(OC)c1CN1CCN(Cc2cccc3c2CCN(C(=O)/C(C#N)=C/c2nccs2)C3C)CC1 (mixture of isomers) [Compound A4, (E/Z)-2-(5-((4-(2,6-dimethoxy-4-(1,4,5-trimethyl-6-oxo-1,6-dihydropyridin-3-yl)benzyl)piperazin-1-yl)methyl)-1-methyl-1,2,3,4-tetrahydroisoquinoline-2-carbonyl)-3-(thiazol-2-yl)acrylonitrile] | < 25% | < 1.25 nM | < 25% |
| COc1cc(-c2cn(C)c(=O)c(C)c2C)cc(OC)c1CN1CC2CC(C1)N2Cc1cccc2c1CCN(C(=O)/C(C#N)=C/C(C)(C)C)C2C (mixture of isomers) [Compound A71, (E/Z)-2-(5-((3-(2,6-dimethoxy-4-(1,4,5-trimethyl-6-oxo-1,6-dihydropyridin-3-yl)benzyl)-3,6-diazabicyclo[3.1.1]heptan-6-yl)methyl)-1-methyl-1,2,3,4-tetrahydroisoquinoline-2-carbonyl)-4,4-dimethylpent-2-enenitrile] | 40 to 70% | 1.25 to 10 nM | 25 to 40% |
